≈ marks a conversion by molar mass, not a printed value. Calls of active or inactive are those of the source. No cut-off for these calls is given here.
Assays:
[1] = test system: Mycobacterium tuberculosis; test: Antibacterial activity against autoluminescent Mycobacterium tuberculosis H37Ra by 7H9 broth based assay; assay type: functional
Acinetobacter baumannii = test: Antibacterial activity against Acinetobacter baumannii ATCC 19606 incubated for 24 hrs by broth microdilution method; assay type: functional, organism-based
Staphylococcus aureus = test: Antibacterial activity against methicillin resistant Staphylococcus aureus ATCC 43300 incubated for 24 hrs by broth microdilution method; assay type: functional, organism-based

SMILES	Activity [1]	Activity (Acinetobacter baumannii)	Activity (Staphylococcus aureus)	MIC [1] [µg/mL]
NC(=O)c1nc2ccc(Cl)cc2c(Cl)c1O	inactive	inactive	inactive	–
NC(=O)[C@@H]1CSC(c2csc(-c3nc4ccc(Cl)cc4cc3O)n2)=N1	inactive	inactive	inactive	–
OCc1csc(-c2nc3ccccc3cc2O)n1	inactive	inactive	inactive	–
O=C(OCc1csc(-c2nc3ccc(Cl)cc3c(Cl)c2O)n1)c1ccccc1O	inactive	inactive	inactive	–
NC(=O)[C@@H]1CSC(c2csc(-c3nc4ccccc4cc3O)n2)=N1	inactive	inactive	inactive	–
OCc1csc(-c2nc3ccccc3c(Cl)c2O)n1	inactive	inactive	inactive	–
CC(=O)/C=C/c1csc(-c2nc3ccc(Cl)cc3c(Cl)c2O)n1	inactive	inactive	inactive	–
OCc1csc(-c2nc3ccc(Cl)cc3c(Cl)c2O)n1	–	–	–	8 (≈ 24.5 µM)
O=C(O)c1nc2ccc(Cl)cc2cc1O	inactive	inactive	inactive	–
NC(=O)c1csc(-c2csc(-c3nc4ccccc4c(Cl)c3O)n2)n1	inactive	inactive	inactive	–
